PMC11470957, “Principles of paralog-specific targeted protein degradation engaging the C-degron E3 KLHDC2” (Nature Communications, 2024)
Where “and” joins values, the source holds several entries; their conditions need not be identical. Identical values can stand only once.

How the values were obtained:
[1] = target: T1, KLHDC2 (Homo sapiens, UniProt Q9Y2U9); test: Western blot of KLHDC2 levels after cellular dosing
T1 sequence (Q9Y2U9 1-406): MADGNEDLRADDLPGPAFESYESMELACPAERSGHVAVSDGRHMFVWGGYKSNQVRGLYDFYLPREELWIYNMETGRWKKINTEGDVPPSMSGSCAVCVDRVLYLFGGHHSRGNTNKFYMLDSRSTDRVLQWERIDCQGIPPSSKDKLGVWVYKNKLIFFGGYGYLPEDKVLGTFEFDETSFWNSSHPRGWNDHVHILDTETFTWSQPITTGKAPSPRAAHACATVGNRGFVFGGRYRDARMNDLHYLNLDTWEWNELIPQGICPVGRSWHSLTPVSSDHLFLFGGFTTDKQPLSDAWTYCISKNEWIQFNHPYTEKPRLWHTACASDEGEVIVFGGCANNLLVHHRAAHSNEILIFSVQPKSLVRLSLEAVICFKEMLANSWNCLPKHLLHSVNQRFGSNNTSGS

[2] = system: BRD proteins in U2OS KO/rescue lysate; test: Degradation in non-denaturing lysates of U2OS KO/rescue cells; conditions: non-denaturing U2OS KO/rescue lysate 4mg/ml, 10 µM, 30° C
[3] = system: BD2 domain from BRD2, BRD3, or BRD4 / neddylated CRL2^KLHDC2; test: Pulse-chase PROTAC-dependent ubiquitylation of BRD BD2 domains by neddylated CRL2^KLHDC2; conditions: prodrug tested

COC(=O)CNC(=O)Cc1csc(-c2ccc3cccc(OCCN4CCN(C(=O)C[C@@H]5N=C(c6ccc(Cl)cc6)c6c(sc(C)c6C)-n6c(C)nnc65)CC4)c3c2)n1 [SJ46420]
KLHDC2 level relative to DMSO (100%) ([1]; 22Rv1, 0.16µM, 24 h, Fig S6f): 167 +/- 17%
KLHDC2 level relative to DMSO (100%) ([1]; 22Rv1, 0.31µM, 24 h, Fig S6f): 171 +/- 10%
KLHDC2 level relative to DMSO (100%) ([1]; 22Rv1, 0.63µM, 24 h, Fig S6f): 179 +/- 13%
KLHDC2 level relative to DMSO (100%) ([1]; 22Rv1, 1.3µM, 24 h, Fig S6f): 199 +/- 27%
KLHDC2 level relative to DMSO (100%) ([1]; 22Rv1, 2.5µM, 24 h, Fig S6f): 170 +/- 35%
KLHDC2 level relative to DMSO (100%) ([1]; 22Rv1, 5µM, 24 h, Fig S6f): 238 +/- 26%
KLHDC2 level relative to DMSO (100%) ([1]; 22Rv1, 10µM, 24 h, Fig S6f): 356 +/- 37%
KLHDC2 level relative to DMSO (100%) ([1]; 293T, 2.5µM, 24 h, Fig S6a): 130 +/- 3.8%
KLHDC2 level relative to DMSO (100%) ([1]; 293T, 5µM, 24 h, Fig S6a): 132 +/- 4.4%
KLHDC2 level relative to DMSO (100%) ([1]; AU565, 0.2µM, 8 h, Fig S6c): 96 +/- 4.5%
KLHDC2 level relative to DMSO (100%) ([1]; AU565, 1µM, 8 h, Fig S6c): 102 +/- 8.6%
KLHDC2 level relative to DMSO (100%) ([1]; AU565, 5µM, 8 h, Fig S6c): 104 +/- 6.7%
KLHDC2 level, Western blot quantification ([1]; Fig 6b, KO/Rescue, 5 uM, DMSO printed 0): 0
KLHDC2 level, Western blot quantification (DMSO = 100) ([1]; Fig 6b, U2OS, 5 uM): 114.478 and 116.145
KLHDC2 level, Western blot quantification (DMSO = 100) ([1]; Fig 6c, 1 uM): 373.51 and 441.349
KLHDC2 level, Western blot quantification (DMSO = 100) ([1]; Fig 6d, 1 uM): 1598.67 and 1321.11
KLHDC2 level, Western blot quantification (DMSO = 100) ([1]; Fig 6d, 1uM together with 1uM MLN4924): 4337 and 4000.23
KLHDC2 level, Western blot quantification (DMSO = 100) ([1]; Fig S6a, 293T cells, 2.5 uM): 127.565 and 133
KLHDC2 level, Western blot quantification (DMSO = 100) ([1]; Fig S6a, 293T cells, 5 uM): 128.652 and 135
KLHDC2 level, Western blot quantification (DMSO = 100) ([1]; Fig S6b, MDA-MB468 Cells, 2 uM): 157.366 and 160
KLHDC2 level, Western blot quantification (DMSO = 100) ([1]; Fig S6b, MDA-MB468 Cells, 5 uM): 170.896 and 175
KLHDC2 level, Western blot quantification (DMSO = 100) ([1]; Fig S6b, MDA-MB468 Cells, 10 uM): 190.223 and 200
KLHDC2 level, Western blot quantification (DMSO = 100) ([1]; Fig S6c, AU565 Cells, 0.2 uM): 94.0454 and 99.4615
KLHDC2 level, Western blot quantification (DMSO = 100) ([1]; Fig S6c, AU565 Cells, 1 uM): 108.13 and 96.9184
KLHDC2 level, Western blot quantification (DMSO = 100) ([1]; Fig S6c, AU565 Cells, 5 uM): 108.427 and 99.9384
KLHDC2 level, Western blot quantification (DMSO = 100) ([1]; Fig S6f, 22RV1 KO/rescue Dose Response, 0.156 uM): 180 and 155
KLHDC2 level, Western blot quantification (DMSO = 100) ([1]; Fig S6f, 22RV1 KO/rescue Dose Response, 0.313 uM): 178 and 164
KLHDC2 level, Western blot quantification (DMSO = 100) ([1]; Fig S6f, 22RV1 KO/rescue Dose Response, 0.625 uM): 188 and 170
KLHDC2 level, Western blot quantification (DMSO = 100) ([1]; Fig S6f, 22RV1 KO/rescue Dose Response, 1.25 uM): 219 and 180
KLHDC2 level, Western blot quantification (DMSO = 100) ([1]; Fig S6f, 22RV1 KO/rescue Dose Response, 2.5 uM): 149 and 192
KLHDC2 level, Western blot quantification (DMSO = 100) ([1]; Fig S6f, 22RV1 KO/rescue Dose Response, 5 uM): 256 and 220
KLHDC2 level, Western blot quantification (DMSO = 100) ([1]; Fig S6f, 22RV1 KO/rescue Dose Response, 10uM): 382 and 330
KLHDC2 level, Western blot quantification (DMSO = 100) ([1]; Fig S6g, SKBR3 Time course, 1 uM, 2hr): 96.2473 and 100.234
KLHDC2 level, Western blot quantification (DMSO = 100) ([1]; Fig S6g, SKBR3 Time course, 1 uM, 4hr): 98.547 and 105.246
KLHDC2 level, Western blot quantification (DMSO = 100) ([1]; Fig S6g, SKBR3 Time course, 1 uM, 8hr): 108.754 and 118.735
KLHDC2 level, Western blot quantification (DMSO = 100) ([1]; Fig S6g, SKBR3 Time course, 5 uM, 2hr): 110.116 and 102.856
KLHDC2 level, Western blot quantification (DMSO = 100) ([1]; Fig S6g, SKBR3 Time course, 5 uM, 4hr): 118.1 and 127.234
KLHDC2 level, Western blot quantification (DMSO = 100) ([1]; Fig S6g, SKBR3 Time course, 5 uM, 8hr): 125.323 and 132.123
KLHDC2 level, Western blot quantification (DMSO = 100) ([1]; Fig S6i, SKBR3, 5uM): 108.759 and 120.207
KLHDC2 level, Western blot quantification (DMSO = 100) ([1]; Fig S6i, U2OS, 5uM): 115.927 and 106.939
KLHDC2 level, Western blot quantification (DMSO = 100) ([1]; Fig S6h, U2OS Time course, 5uM, 2hr): 102.827 and 100.635
KLHDC2 level, Western blot quantification (DMSO = 100) ([1]; Fig S6h, U2OS Time course, 5uM, 4hr): 116.419 and 128.136
KLHDC2 level, Western blot quantification (DMSO = 100) ([1]; Fig S6h, U2OS Time course, 5uM, 8hr): 157.536 and 145.235
KLHDC2 level, Western blot quantification (DMSO = 100) ([1]; Fig S6h, U2OS Time course, 5uM, 24hr): 121.407 and 133.135
KLHDC2 level, Western blot quantification (DMSO = 100) ([1]; Fig S6d, U2OS KO/rescue Dose Response, 0.156 uM): 140 and 155
KLHDC2 level, Western blot quantification (DMSO = 100) ([1]; Fig S6d, U2OS KO/rescue Dose Response, 0.313 uM): 192 and 220
KLHDC2 level, Western blot quantification (DMSO = 100) ([1]; Fig S6d, U2OS KO/rescue Dose Response, 0.625 uM): 253 and 275
KLHDC2 level, Western blot quantification (DMSO = 100) ([1]; Fig S6d, U2OS KO/rescue Dose Response, 1.25 uM): 345 and 380
KLHDC2 level, Western blot quantification (DMSO = 100) ([1]; Fig S6d, U2OS KO/rescue Dose Response, 2.5 uM): 540 and 580
KLHDC2 level, Western blot quantification (DMSO = 100) ([1]; Fig S6d, U2OS KO/rescue Dose Response, 5 uM): 581 and 620
KLHDC2 level relative to DMSO (100%) ([1]; MDA-MB-468, 2.5µM, 24 h, Fig S6b): 158 +/- 1.9%
KLHDC2 level relative to DMSO (100%) ([1]; MDA-MB-468, 5µM, 24 h, Fig S6b): 172 +/- 4.4%
KLHDC2 level relative to DMSO (100%) ([1]; MDA-MB-468, 10µM, 24 h, Fig S6b): 195 +/- 7.2%
KLHDC2 level relative to DMSO (100%) ([1]; PC3, 0.16µM, 24 h, Fig S6e): 65 +/- 9.7%
KLHDC2 level relative to DMSO (100%) ([1]; PC3, 0.31µM, 24 h, Fig S6e): 68 +/- 8.9%
KLHDC2 level relative to DMSO (100%) ([1]; PC3, 0.63µM, 24 h, Fig S6e): 43 +/- 15%
KLHDC2 level relative to DMSO (100%) ([1]; PC3, 1.3µM, 24 h, Fig S6e): 48 +/- 8.5%
KLHDC2 level relative to DMSO (100%) ([1]; PC3, 2.5µM, 24 h, Fig S6e): 50 +/- 8.6%
KLHDC2 level relative to DMSO (100%) ([1]; PC3, 5µM, 24 h, Fig S6e): 49 +/- 6.1%
KLHDC2 level relative to DMSO (100%) ([1]; PC3, 10µM, 24 h, Fig S6e): 40 +/- 7.2%
KLHDC2 level relative to DMSO (100%) ([1]; SKBR3, 1µM, 2hr, Fig S6g): 98 +/- 2.6%
KLHDC2 level relative to DMSO (100%) ([1]; SKBR3, 1µM, 4hr, Fig S6g): 101 +/- 4.6%
KLHDC2 level relative to DMSO (100%) ([1]; SKBR3, 5µM, 2hr, Fig S6g): 106 +/- 5.8%
KLHDC2 level relative to DMSO (100%) ([1]; SKBR3, 5µM, 4hr, Fig S6g): 122 +/- 6.3%
KLHDC2 level relative to DMSO (100%) ([1]; SKBR3, 5µM, 8hr, Fig S6g): 129 +/- 4.7%
KLHDC2 level relative to DMSO (100%) ([1]; U2OS DC2KO (KLHDC2 knockout), 5µM, 24 h, Fig 6b): 0 +/- 0%
KLHDC2 level relative to DMSO (100%) ([1]; U2OS KO/Rescue, 0.16µM, 24 h, Fig S6d): 146 +/- 12%
KLHDC2 level relative to DMSO (100%) ([1]; U2OS KO/Rescue, 0.31µM, 24 h, Fig S6d): 205 +/- 21%
KLHDC2 level relative to DMSO (100%) ([1]; U2OS KO/Rescue, 0.63µM, 24 h, Fig S6d): 264 +/- 16%
KLHDC2 level relative to DMSO (100%) ([1]; U2OS KO/Rescue, 1µM + co-dosing 1µM MLN4924, 24 h, Fig 6d): 4170 +/- 238%
KLHDC2 level relative to DMSO (100%) ([1]; U2OS KO/Rescue, 1µM, 24 h, Fig 6c): 407 +/- 47%
KLHDC2 level relative to DMSO (100%) ([1]; U2OS KO/Rescue, 1µM, 24 h, Fig 6d): 1460 +/- 196%
KLHDC2 level relative to DMSO (100%) ([1]; U2OS KO/Rescue, 1.3µM, 24 h, Fig S6d): 362 +/- 25%
KLHDC2 level relative to DMSO (100%) ([1]; U2OS KO/Rescue, 2.5µM, 24 h, Fig S6d): 559 +/- 29%
KLHDC2 level relative to DMSO (100%) ([1]; U2OS KO/Rescue, 5µM, 24 h, Fig S6d): 600 +/- 32%
KLHDC2 level relative to DMSO (100%) ([1]; U2OS KO/Rescue, concentration not printed (line after 5µM), 24 h, Fig S6d): 710 +/- 67%
KLHDC2 level relative to DMSO (100%) ([1]; U2OS, 5µM, 2hr, Fig S6h): 101 +/- 1.9%
KLHDC2 level relative to DMSO (100%) ([1]; U2OS, 5µM, 4hr, Fig S6h): 122+/- 8.2%
KLHDC2 level relative to DMSO (100%) ([1]; U2OS, 5µM, 8hr, Fig S6i): 111 +/- 6.4%
KLHDC2 level relative to DMSO (100%) ([1]; U2OS, 5µM, 8hr, Fig S6h): 151 +/- 8.8%
KLHDC2 level relative to DMSO (100%) ([1]; U2OS, 5µM, 24hr, Fig S6h): 127 +/- 8.2%
degrader dependent decrease in BRD protein levels in lysate [2]: did not observe a degrader dependent decrease
ubiquitylation of BRD3BD2 in reconstituted biochemical assays [3]: unable to promote ubiquitylation
